The record followed here is article PMC6271965, “Inhibition of GlcNAc-Processing Glycosidases by C-6-Azido-NAG-Thiazoline and Its Derivatives” (Molecules, 2014).

Assay in all cases: pNP-β-GlcNAc hydrolysis, kinetic assay at […] nm
What all share (assay type): biochemical

The target in experiment [1] is T1, O-GlcNAcase from Bacteroides thetaiotaomicron (Bacteroides thetaiotaomicron, UniProt Q89ZI2).
T1 construct: gene BT_4395; gene from D. Vocadlo; GH84
T1 sequence (Q89ZI2 22-737): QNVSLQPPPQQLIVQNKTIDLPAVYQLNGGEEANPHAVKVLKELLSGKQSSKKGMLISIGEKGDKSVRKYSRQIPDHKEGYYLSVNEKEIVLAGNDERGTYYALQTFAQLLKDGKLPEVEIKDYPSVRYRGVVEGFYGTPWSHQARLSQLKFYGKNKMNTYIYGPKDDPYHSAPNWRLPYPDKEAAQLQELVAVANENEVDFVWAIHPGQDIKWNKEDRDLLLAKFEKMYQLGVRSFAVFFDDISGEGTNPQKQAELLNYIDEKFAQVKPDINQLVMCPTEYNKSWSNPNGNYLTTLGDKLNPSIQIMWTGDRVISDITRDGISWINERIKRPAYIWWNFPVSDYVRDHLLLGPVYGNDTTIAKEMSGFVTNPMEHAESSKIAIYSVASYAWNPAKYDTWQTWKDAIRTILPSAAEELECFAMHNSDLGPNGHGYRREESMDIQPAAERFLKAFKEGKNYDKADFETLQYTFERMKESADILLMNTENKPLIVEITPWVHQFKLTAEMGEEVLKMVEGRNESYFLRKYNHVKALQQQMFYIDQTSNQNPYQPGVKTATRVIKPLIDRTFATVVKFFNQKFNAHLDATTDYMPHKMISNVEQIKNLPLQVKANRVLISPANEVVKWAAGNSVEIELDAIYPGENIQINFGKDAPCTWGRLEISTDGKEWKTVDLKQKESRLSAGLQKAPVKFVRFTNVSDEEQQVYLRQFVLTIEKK

In experiment [2] the target is T2, β-N-acetylhexosaminidase from Streptomyces plicatus (Streptomyces plicatus, UniProt O85361).
T2 construct: gene hex; synthetic gene, His6-tagged fusion in pET-15b (NdeI/BamHI), E. coli BL21(DE3) pLysS, Ni-NTA purified; GH20
T2 sequence (O85361 1-506): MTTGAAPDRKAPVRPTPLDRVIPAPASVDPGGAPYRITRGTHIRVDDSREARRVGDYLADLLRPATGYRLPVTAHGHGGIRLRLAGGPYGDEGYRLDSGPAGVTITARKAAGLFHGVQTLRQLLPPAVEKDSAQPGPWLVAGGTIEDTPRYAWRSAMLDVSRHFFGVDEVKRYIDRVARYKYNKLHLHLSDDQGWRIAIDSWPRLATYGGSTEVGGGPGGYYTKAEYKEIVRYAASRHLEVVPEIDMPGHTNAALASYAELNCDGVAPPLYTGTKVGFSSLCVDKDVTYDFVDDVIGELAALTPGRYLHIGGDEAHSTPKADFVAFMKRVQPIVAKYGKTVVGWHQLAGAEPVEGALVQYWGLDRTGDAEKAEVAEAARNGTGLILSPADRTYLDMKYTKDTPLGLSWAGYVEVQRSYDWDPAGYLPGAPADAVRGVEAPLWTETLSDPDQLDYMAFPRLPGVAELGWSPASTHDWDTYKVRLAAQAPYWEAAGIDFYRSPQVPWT
The conditions noted are these: read-out: KI [μM] / NAG-thiazoline (1).

Experiment [3] addresses T3, β-N-acetylhexosaminidase from Talaromyces flavus (Talaromyces flavus, UniProt G5DAA0).
T3 construct: recombinant, secreted from Pichia pastoris, purified by cation exchange chromatography; GH20

The target in another experiment is T4, human O-GlcNAcase (Homo sapiens, UniProt O60502).
T4 construct: gene OGA; gene from D. Vocadlo; GH84
T4 sequence (O60502 1-916): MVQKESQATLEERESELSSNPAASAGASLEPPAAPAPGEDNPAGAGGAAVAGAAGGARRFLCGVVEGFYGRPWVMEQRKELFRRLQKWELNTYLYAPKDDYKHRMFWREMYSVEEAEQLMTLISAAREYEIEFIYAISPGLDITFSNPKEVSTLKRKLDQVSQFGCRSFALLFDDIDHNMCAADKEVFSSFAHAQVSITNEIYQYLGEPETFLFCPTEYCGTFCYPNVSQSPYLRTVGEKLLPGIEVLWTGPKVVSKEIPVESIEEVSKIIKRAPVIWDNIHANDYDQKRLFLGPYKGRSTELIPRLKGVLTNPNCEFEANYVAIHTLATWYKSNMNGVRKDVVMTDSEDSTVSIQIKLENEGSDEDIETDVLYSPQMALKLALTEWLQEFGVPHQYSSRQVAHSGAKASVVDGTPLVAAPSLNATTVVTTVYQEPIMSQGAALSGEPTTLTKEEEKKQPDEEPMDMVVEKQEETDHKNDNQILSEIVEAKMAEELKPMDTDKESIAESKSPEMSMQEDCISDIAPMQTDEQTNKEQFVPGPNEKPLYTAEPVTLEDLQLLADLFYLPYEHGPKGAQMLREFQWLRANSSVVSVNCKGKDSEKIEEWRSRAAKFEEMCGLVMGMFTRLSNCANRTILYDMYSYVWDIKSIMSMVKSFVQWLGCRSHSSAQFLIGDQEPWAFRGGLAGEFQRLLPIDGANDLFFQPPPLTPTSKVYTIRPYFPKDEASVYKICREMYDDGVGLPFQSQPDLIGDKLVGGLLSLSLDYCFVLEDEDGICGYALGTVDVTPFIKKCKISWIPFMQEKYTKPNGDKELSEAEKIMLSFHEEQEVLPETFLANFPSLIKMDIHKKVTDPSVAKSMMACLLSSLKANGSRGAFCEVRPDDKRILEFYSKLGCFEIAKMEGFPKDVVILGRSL
As to conditions: read-out: KI [μM] / C-6-azido-NAG-thiazoline (2).

Setting [4] is: read-out: KI [μM] / NAG-thiazoline (1).
The mark [5] stands for this setting: read-out: KI [μM] / C-6-azido-NAG-thiazoline (2).

Where two headings read alike, the source gives them in different places.

T3 sequence (G5DAA0 18-628): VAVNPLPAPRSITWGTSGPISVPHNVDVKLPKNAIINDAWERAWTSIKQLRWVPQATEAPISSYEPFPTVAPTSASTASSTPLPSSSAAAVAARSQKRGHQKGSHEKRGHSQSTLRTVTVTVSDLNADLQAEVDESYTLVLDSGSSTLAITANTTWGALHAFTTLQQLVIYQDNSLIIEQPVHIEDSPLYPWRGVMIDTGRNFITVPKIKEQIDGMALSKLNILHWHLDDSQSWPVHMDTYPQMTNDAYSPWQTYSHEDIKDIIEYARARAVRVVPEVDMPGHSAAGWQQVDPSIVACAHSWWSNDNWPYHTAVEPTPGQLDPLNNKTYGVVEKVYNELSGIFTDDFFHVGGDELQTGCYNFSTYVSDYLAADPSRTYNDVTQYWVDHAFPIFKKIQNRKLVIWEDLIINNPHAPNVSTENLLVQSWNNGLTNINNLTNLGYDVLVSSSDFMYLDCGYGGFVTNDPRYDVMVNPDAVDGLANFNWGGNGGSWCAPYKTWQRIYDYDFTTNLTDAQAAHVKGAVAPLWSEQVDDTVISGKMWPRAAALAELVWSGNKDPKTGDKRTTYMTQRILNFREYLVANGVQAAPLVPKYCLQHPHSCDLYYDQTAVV

On to `CC1=N[C@@H]2[C@@H](O)[C@H](O)[C@@H](CO)O[C@@H]2S1` [compound 1, 1,2-Dideoxy-2'-methyl-α-D-glucopyrano-[2,1-d]-∆2'-thiazoline], for which the figures for the Ki in experiment [1] (setting [4]), in experiment [2] and in experiment [3] (setting [4]) were 0.029 ± 0.003 µM, 24 ± 5 µM and 42.7 ± 1.9 µM, respectively.

For `CC1=N[C@@H]2[C@@H](O)[C@H](O)[C@@H](CN=[N+]=[N-])O[C@@H]2S1` [compound 2, 6-Azido-1,2-dideoxy-2'-methyl-α-D-glucopyrano-[2,1-d]-∆2'-thiazoline], the figures for the Ki (in experiment [1] (setting [5]); on human O-GlcNAcase; in experiment [3] (setting [5])) were 3.1 ± 0.3 µM, 19.3 ± 11.9 µM and 212 ± 16.3 µM, respectively.
